US20140243326A1, “Synergistic Insecticidal Mixtures” (priority 2003, published 2014)
“And” between values parts separate entries of the source, which are not always exact repeats. Equal values may be shown once.

Columns and labels:
[1] = test system: Phaedon cochleariae larvae; assay: Phaedon cochleariae larvae test (cabbage leaf dip); format: in vivo, mustard beetle (Phaedon cochleariae); conditions: 4 ppm, single active ingredient
Excerpt: (§1) The expected effect for a given combination of two active ingredients can be calculated (cf. Colby, S. R., “Calculating Synergistic and Antagonistic Responses of Herbicide Combinations”, Weeds, 15, pp. 20-22, 1967).
(§2) If • X=the kill rate, expressed in % of the untreated control, while using active ingredient A in an application amount of m ppm, • Y=the kill rate, expressed in % of the untreated control, while using active ingredient B in an application amount of n ppm, • E=the kill rate, expressed in % of die untreated control, while using active ingredient A and B in application amounts of m and n ppm, then
(§3) If the actual kill rate is higher than calculated rate, the combination's kill rate is superadditive, i.e., it has a synergistic effect. In this case, the actually observed kill rate must be higher than the value calculated using the above formula for the expected kill rate (E).
(§4) Solvent: 7 parts per weight dimethyl formamide Emulsifiers: 2 parts by weight alkylaryl polyglycol ether
To manufacture one of the appropriate active ingredient preparations, mix 1 part by weight of the active ingredient with the indicated amount of solvent and emulsifier and dilute the concentrate with emulsifier-containing water to the desired concentration.
Cabbage leaves (Brassica oleracea) are treated by being dipped into the active ingredient preparation at the desired concentration and infested with larvae of the mustard beetle (Phaedon cochleariae) while the leaves are still damp.
After the desired time, determine the % that have been killed off. For this purpose 100% means that all the beetle larvae on the leaves were killed; 0% means that no beetle larvae were killed. Calculate the determined kill values using Colby's formula.

[2] = test system: Plutella xylostella, resistant strain; assay: Plutella xylostella test, resistant strain (cabbage leaf dip); format: in vivo, diamondback moth (Plutella xylostella; conditions: 100 ppm, single active ingredient
Excerpt: as §1, §2, §3
Solvent: 7 parts per weight dimethyl formamide Emulsifier: 2 parts by weight alkylaryl polyglycol ether
(§5) To prepare one of the appropriate active ingredient preparations, mix 1 part by weight of the active ingredient with the indicated amount of solvent and emulsifier and dilute the concentrate with emulsifier-containing water to the desired concentration.
Cabbage leaves (Brassica oleracea) are treated by being dipped into the active ingredient preparation at the desired concentration and infested with diamondback moth grubs (Plutella xylostella, resistant strain) while the leaves are still damp.
After the desired time, determine the % that have been killed off. For these purposes 100% means that all the grubs on the leaves were killed; 0% means that no grubs were killed. Calculate the determined kill rate values using Colby's formula.

Myzus persicae = Myzus persicae test (cabbage leaf dip); format: in vivo, green peach aphid (Myzus persicae); conditions: single active ingredient
Excerpt: as §1, §2, §3, §4, §5
Cabbage leaves (Brassica oleracea) that have been highly infested with the green peach aphid (Myzus persicae) are treated by being dipped into the active ingredient preparation at the desired concentration.
After the desired time, determine the % that have been killed off. For these purposes, 100% means that all the aphids on the leaves were killed; 0% means that no aphids were killed. Calculate the determined kill values using Colby's formula.

Row | SMILES | Kill rate in % after 6d [1] [%] | Kill rate in % after 6d [2] | Dead in % after 6d (Myzus persicae; 0.8 ppm) [%] | Kill rate in % after 6d (Myzus persicae; 0.8 ppm) [%] | Dead in % after 6d (Myzus persicae; 20 ppm) [%] | Kill rate in % after 6d (Myzus persicae; 20 ppm) [%]
1 | CN/C(=N\[N+](=O)[O-])NCc1cnc(Cl)s1 [clothianidin] | 75 | – | – | – | – | –
2 | O=[N+]([O-])NC1=NCCN1Cc1ccc(Cl)nc1 [imidacloprid] | 45 | – | – | – | – | –
3 | N#C/N=C1\SCCN1Cc1ccc(Cl)nc1 [thiacloprid] | 0 | 45% | 30 | – | – | –
4 | CN1COCN(Cc2cnc(Cl)s2)/C1=N/[N+](=O)[O-] [thiamethoxam] | 25 | 75% | – | 85 | – | –
5 | CS/C(C)=N\OC(=O)N(C)SN(C)C(=O)O/N=C(\C)SC [thiodicarb] | – | 15% and 5% | – | – | 0 | 0
